These results are taken from ChEMBL document CHEMBL5365435, “Design, Synthesis, and Biological Evaluation of Thioglucoside Analogues of Gliflozin as Potent New Gliflozin Drugs” (J Med Chem, 2023).

For data set [1], the system named is HEK293. The data set is described as follows: Cytotoxicity against HEK293 cells at 100 uM incubated for 24 hrs by MTT assay. Conditions: human, hek293, 24 h. Type of data set: toxicity, cell-based.
Data set [2] has as its target T1, Sodium/glucose cotransporter 2 (Homo sapiens) (UniProt P31639).
T1 sequence (whole entry): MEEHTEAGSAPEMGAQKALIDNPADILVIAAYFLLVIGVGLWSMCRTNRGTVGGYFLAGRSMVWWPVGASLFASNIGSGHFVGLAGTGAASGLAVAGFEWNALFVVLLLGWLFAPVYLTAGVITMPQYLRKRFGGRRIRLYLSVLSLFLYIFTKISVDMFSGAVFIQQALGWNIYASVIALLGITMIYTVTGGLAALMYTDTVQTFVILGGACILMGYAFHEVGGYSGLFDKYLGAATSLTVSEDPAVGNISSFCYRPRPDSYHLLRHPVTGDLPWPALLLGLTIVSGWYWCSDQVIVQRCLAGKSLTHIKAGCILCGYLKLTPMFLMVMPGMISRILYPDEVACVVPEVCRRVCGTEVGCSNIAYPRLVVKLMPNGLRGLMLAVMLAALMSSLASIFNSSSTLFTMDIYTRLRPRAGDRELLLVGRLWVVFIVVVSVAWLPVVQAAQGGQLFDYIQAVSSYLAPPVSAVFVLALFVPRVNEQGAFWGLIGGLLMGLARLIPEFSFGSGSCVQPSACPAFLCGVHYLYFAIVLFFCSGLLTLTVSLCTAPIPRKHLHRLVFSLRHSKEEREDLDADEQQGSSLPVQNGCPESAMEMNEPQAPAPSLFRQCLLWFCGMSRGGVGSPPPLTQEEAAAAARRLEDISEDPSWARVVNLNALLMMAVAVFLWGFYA
The experiment in a line: Inhibition of SGLT2 in HEK293 cells assessed as 2-NBDG uptake at 100 uM preincubated for 1 hr followed by 2-NBDG addition and measured after 1 hr relative to control. It is filed as cell-based. The conditions noted are these: time 2.0 hrs.

Data set [3] has as its target T2, Sodium/glucose cotransporter 2 (Homo sapiens, UniProt P31639).
T2 sequence (P31639 whole entry): T1 sequence (whole entry)
The data set is described as follows: Inhibition of SGLT2 (unknown origin).

Data set [4] deals with T1, Sodium/glucose cotransporter 2 (Homo sapiens). The data set is described as follows: Inhibition of SGLT2 (unknown origin) at 100 uM relative to control.
The subject of data set [5] is Mus musculus. The experiment in a line: Antidiabetic activity against C57BL/6J mouse assessed as decrease in renal glucose level at 3 mg/kg, po measured upto 8 hrs by glucometer analysis. It is filed as functional, organism-based.
Data set [6] relates to Mus musculus. The data set is described as follows: Antidiabetic activity against C57BL/6J mouse assessed as decrease in blood glucose level at 3 mg/kg, po measured upto 8 hrs by glucometer analysis. It is filed as functional, organism-based.
Data set [7] is described as follows: Cmax in mouse at 3 mg/kg, po by LC analysis. It is filed as ADME, organism-based. Also on record: dose 3 mg/kg, route po. Conditions: in vivo.
Data set [8] is described as follows: Tmax in mouse at 3 mg/kg, po by LC analysis. Type of data set: ADME, organism-based. Conditions: in vivo.
Data set [9] is described as follows: Half life in mouse at 3 mg/kg, po by LC analysis. Conditions: in vivo. It is filed as ADME, organism-based.
Data set [10] in a line: AUCinfinity in mouse at 3 mg/kg, po by LC analysis. Type of data set: ADME, organism-based. Also on record: dose 3 mg/kg, route po. Conditions: in vivo.

Structures are written as SMILES. Calls of active or inactive are those of the source.

What is called inhibition is the relative decrease from the control value, in per cent. What is called IC50 is the point on the concentration scale where inhibition reaches its midpoint. Broadly, the Cmax is the highest concentration seen after dosing. Broadly, the Tmax is the time from dosing to the highest level. In general, half-life refers to the time needed for the level to fall by half in the phase considered. As usually defined, the AUC(0-inf) is the area under the concentration-time curve extrapolated to infinity. Low values mean less exposure, high ones more exposure.

Take `CCOc1ccc(Cc2cc(S[C@@H]3O[C@H](CO)[C@@H](O)[C@H](O)[C@H]3O)ccc2Cl)cc1`: the Activity entry in data set [1] is recorded as “Non-Toxic”. In addition, in [2], the inhibition came to 57%.
`COc1ccc(Cc2ccccc2O[C@@H]2O[C@H](CO)[C@@H](O)[C@H](O)[C@H]2O)cc1` [SERGLIFLOZIN A] gave an IC50 in data set [3] of 7.5 nM.
On to `OC[C@H]1O[C@@H](Sc2ccc(Cl)c(Cc3ccc(O[C@H]4CCOC4)cc3)c2)[C@H](O)[C@@H](O)[C@@H]1O`, for which the inhibition in data set [4] and in data set [2] was 62% in each case. For the same compound, the Activity entry in [1] is “Non-Toxic”.
As for `OC[C@H]1O[C@@H](Sc2cccc(Cl)c2Cc2ccc(O[C@H]3CCOC3)cc2)[C@H](O)[C@@H](O)[C@@H]1O`, the IC50 in data set [3] came out at 2 nM. The Activity result in data set [1] is listed as “Non-Toxic”. Also, in data set [2], the inhibition is over 90%. Besides, the result in data set [5] and in [6] was Active. In [7], this compound registered a Cmax of 4200 ng/mL. The time to peak (Tmax) in [8] is 1 h. The compound also showed a half-life in data set [9] of 3.67 h. In [10], this compound had an AUC(0-inf) of 12800 ng·h/mL.
The compound `Cc1cc(O)c(C(=O)CCc2ccc3occc3c2)c(O[C@@H]2O[C@H](CO)[C@@H](O)[C@H](O)[C@H]2O)c1` yielded an IC50 in data set [3] of 4.4 nM.
For the compound `Cc1ccc(S[C@@H]2O[C@H](CO)[C@@H](O)[C@H](O)[C@H]2O)cc1Cc1ccc(-c2ccc(F)cc2)s1`, in data set [1], the Activity entry was “Non-Toxic”. Also, the inhibition in [2] came to 54%.
Turning to `COc1ccc(Cc2ccccc2S[C@@H]2O[C@H](CO)[C@@H](O)[C@H](O)[C@H]2O)cc1`, the IC50 in data set [3] worked out at 5.9 nM. Also, in data set [1], the Activity entry is “Non-Toxic”. Moreover, the inhibition in [2] is over 90%.
The corresponding values for `Cc1cccc(S[C@@H]2O[C@H](CO)[C@@H](O)[C@H](O)[C@H]2O)c1Cc1ccc(-c2ccc(F)cc2)s1` are 2.5 nM, “Non-Toxic” and over 90%.
In the case of `OC[C@H]1O[C@@H](c2ccc(Cl)c(Cc3ccc(O[C@H]4CCOC4)cc3)c2)[C@H](O)[C@@H](O)[C@@H]1O`, the result in [5] and in [6] was Active.
Compound `Cc1ccc([C@@H]2O[C@H](CO)[C@@H](O)[C@H](O)[C@H]2O)cc1Cc1ccc(-c2ccc(F)cc2)s1` [CANAGLIFLOZIN ANHYDROUS] registered an IC50 in data set [3] of 2.4 nM. Further, the inhibition in data set [2] was over 90%.
`CCOc1ccc(Cc2c(Cl)cccc2S[C@@H]2O[C@H](CO)[C@@H](O)[C@H](O)[C@H]2O)cc1` registered an IC50 in [3] of 2.6 nM. Also, the Activity result in data set [1] is “Non-Toxic”. The inhibition in data set [2] is over 90%.
In data set [3], `CCOC(=O)OC[C@H]1O[C@@H](Oc2ccccc2Cc2ccc(OC)cc2)[C@H](O)[C@@H](O)[C@@H]1O` [SERGLIFLOZIN ETABONATE] displayed an IC50 of 7.5 nM.
